Reference: patent publication US10131652B2, “Pyrimidinyloxy benzene derivatives as herbicides” (E. I. DU PONT DE NEMOURS AND COMPANY, priority 2014, dated 2018)
Where two headings read alike, the source gives them in different places.

Key:
Type in all cases: in vivo
[1] = system: lambsquarters (Chenopodium album); experiment: Test D pre-/postemergence plant response; conditions: Chenopodium album; for pest or weed control at 16 g/ha: 16 g ai/ha; for pest or weed control at 31 g/ha: 31 g ai/ha; for pest or weed control at 62 g/ha: 62 g ai/ha; for pest or weed control at 125 g/ha: 125 g ai/ha
Outline: (§1)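 Visual injury scoring (0–100) at 13 to 15 days in greenhouse. Preemergence sprays on seeded loam/sand; postemergence sprays on 1–4 leaf plants.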

[2] = system: galium (catchweed bedstraw, Galium aparine); experiment: Test D pre-/postemergence plant response; conditions: Galium; for pest or weed control at 16 g/ha: 16 g ai/ha; for pest or weed control at 31 g/ha: 31 g ai/ha; for pest or weed control at 62 g/ha: 62 g ai/ha; for pest or weed control at 125 g/ha: 125 g ai/ha
Outline: as §1

[3] = system: winter wheat (Triticum aestivum); experiment: Test D pre-/postemergence plant response; conditions: Triticum aestivum; for plant injury at 16 g/ha: 16 g ai/ha; for plant injury at 31 g/ha: 31 g ai/ha; for plant injury at 62 g/ha: 62 g ai/ha; for plant injury at 125 g/ha: 125 g ai/ha
Outline: as §1

[4] = system: Italian ryegrass (Lolium multiflorum); experiment: Test D pre-/postemergence plant response; conditions: Lolium multiflorum; for pest or weed control at 16 g/ha: 16 g ai/ha; for pest or weed control at 31 g/ha: 31 g ai/ha; for pest or weed control at 62 g/ha: 62 g ai/ha; for pest or weed control at 125 g/ha: 125 g ai/ha
Outline: as §1

[5] = system: velvetleaf (Abutilon theophrasti); experiment: Test D pre-/postemergence plant response; conditions: Abutilon theophrasti; for pest or weed control at 16 g/ha: 16 g ai/ha; for pest or weed control at 31 g/ha: 31 g ai/ha; for pest or weed control at 62 g/ha: 62 g ai/ha; for pest or weed control at 125 g/ha: 125 g ai/ha
Outline: as §1

corn (Zea mays) = experiment: Test D pre-/postemergence plant response; conditions: Zea mays; for Corn plant response rating (crop injury, 0 = no effect, 100 = complete kill) at 62 g/ha: 62 g ai/ha
Outline: as §1

[6] = system: oilseed rape (Brassica napus); experiment: Test D pre-/postemergence plant response; conditions: Brassica napus; for plant injury at 16 g/ha: 16 g ai/ha; for plant injury at 31 g/ha: 31 g ai/ha; for plant injury at 62 g/ha: 62 g ai/ha; for plant injury at 125 g/ha: 125 g ai/ha
Outline: as §1

rice (Oryza sativa) = experiment: Test C flooded paddy test plant response; conditions: Oryza sativa; Flood, 250 g ai/ha; scale of 0 to 100 where 0 is no effect and 100 is complete control; 13 to 15 days; read-out: Rice plant response rating
Outline: (§2)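 Readout is a visual 0–100 score (100 = complete control) versus controls at 13–15 days. Plants at 2-leaf stage, flooded to 3 cm, treated through paddy water.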

[7] = system: barnyardgrass (Echinochloa crus-galli); experiment: Test C flooded paddy test plant response; conditions: Echinochloa crus-galli; Flood, 250 g ai/ha; scale of 0 to 100 where 0 is no effect and 100 is complete control; 13 to 15 days; read-out: Barnyardgrass plant response rating
Outline: as §2

[8] = system: small-flower umbrella sedge (Cyperus difformis); experiment: Test C flooded paddy test plant response; conditions: Cyperus difformis; Flood, 250 g ai/ha; scale of 0 to 100 where 0 is no effect and 100 is complete control; 13 to 15 days; read-out: Sedge, Umbrella plant response rating
Outline: as §2

[9] = system: ducksalad (Heteranthera limosa); experiment: Test C flooded paddy test plant response; conditions: Heteranthera limosa; Flood, 250 g ai/ha; scale of 0 to 100 where 0 is no effect and 100 is complete control; 13 to 15 days; read-out: Ducksalad plant response rating
Outline: as §2

[10] = pre-emergence, Preemergence, scale 0 to 100 (0 no effect, 100 complete control), read-out: Plant response rating, Lambsquarters
[11] = post-emergence, Postemergence, scale 0 to 100, 0 no effect, 100 complete control, read-out: Plant response rating, Galium
[12] = pre-emergence, Preemergence, scale 0 to 100 (0 no effect, 100 complete control), read-out: Plant response rating, Galium
[13] = pre-emergence, Preemergence, scale 0 to 100 (0 no effect, 100 complete control), read-out: Plant response rating, Wheat
[14] = pre-emergence, Preemergence, scale 0 to 100 (0 no effect, 100 complete control), read-out: Plant response rating, Ryegrass, Italian
[15] = pre-emergence, Preemergence, scale 0 to 100 (0 no effect, 100 complete control), read-out: Plant response rating, Velvetleaf
[16] = pre-emergence, Preemergence, scale 0 to 100 (0 no effect, 100 complete control), read-out: Plant response rating, Oilseed Rape

FC(F)(F)c1cc(-c2ccccc2Oc2ncc(Cl)cn2)no1 [Compound 200, 5-chloro-2-[2-[5-(trifluoromethyl)-3-isoxazolyl]phenoxy]pyrimidine]
20%: plant injury at 125 g/ha ([3]; post-emergence, Postemergence, scale 0 to 100, 0 no effect, 100 complete control, read-out: Plant response rating, Wheat) | plant injury at 62 g/ha [3, 13] | pest or weed control at 16 g/ha ([4]; post-emergence, Postemergence, read-out: Plant response rating (scale 0 to 100), Ryegrass, Italian) | plant injury at 125 g/ha (corn (Zea mays); pre-emergence, Preemergence, 125 g ai/ha, read-out: Plant response rating (scale 0 to 100), Corn)
70%: pest or weed control at 16 g/ha ([1]; post-emergence, Postemergence, read-out: Plant response rating (scale 0 to 100), Lambsquarters) | pest or weed control at 62 g/ha ([5]; post-emergence, Postemergence, scale 0 to 100, 0 no effect, 100 complete control, read-out: Velvetleaf plant response rating) | plant injury at 16 g/ha ([6]; post-emergence, Postemergence, read-out: Plant response rating (scale 0 to 100), Oilseed Rape)
15%: Corn plant response rating (crop injury, 0 = no effect, 100 = complete kill) at 125 g/ha (corn (Zea mays); post-emergence, Postemergence, 125 g ai/ha, scale 0 to 100, 0 no effect, 100 complete control)
5%: plant injury at 16 g/ha ([3]; post-emergence, Postemergence, read-out: Plant response rating (scale 0 to 100), Wheat) | plant injury at 31 g/ha [3, 13] | plant injury at 16 g/ha (corn (Zea mays); post-emergence, Postemergence, 16 g ai/ha, read-out: Plant response rating (scale 0 to 100), Corn) | plant injury at 31 g/ha (corn (Zea mays); post-emergence, Postemergence, 31 g ai/ha, scale 0 to 100 (0 no effect, 100 complete control), read-out: Corn plant response rating)
90%: pest or weed control at 125 g/ha ([4]; pre-emergence, Preemergence, read-out: Plant response rating (scale 0 to 100), Ryegrass, Italian) | pest or weed control at 250 g/ha [7]
0%: plant injury at 16 g/ha [3, 13] | Corn plant response rating (crop injury, 0 = no effect, 100 = complete kill) at 16 g/ha (corn (Zea mays); pre-emergence, Preemergence, 16 g ai/ha, scale 0 to 100 (0 no effect, 100 complete control)) | Corn plant response rating (crop injury, 0 = no effect, 100 = complete kill) at 31 g/ha (corn (Zea mays); pre-emergence, Preemergence, 31 g ai/ha, scale 0 to 100 (0 no effect, 100 complete control))
95%: pest or weed control at 62 g/ha [1, 10] | pest or weed control at 125 g/ha ([2]; pre-emergence, Preemergence, read-out: Plant response rating (scale 0 to 100), Galium)
30%: pest or weed control at 16 g/ha [4, 14] | pest or weed control at 16 g/ha ([5]; post-emergence, Postemergence, read-out: Plant response rating (scale 0 to 100), Velvetleaf)
100%: pest or weed control at 125 g/ha ([1]; pre-emergence, Preemergence, read-out: Plant response rating (scale 0 to 100), Lambsquarters) | pest or weed control at 31 g/ha ([2]; post-emergence, Postemergence, scale 0 to 100 (0 no effect, 100 complete control), read-out: Galium plant response rating) | pest or weed control at 62 g/ha [2, 11] | pest or weed control at 125 g/ha [2, 11] | pest or weed control at 62 g/ha [2, 12] | pest or weed control at 125 g/ha ([5]; pre-emergence, Preemergence, read-out: Plant response rating (scale 0 to 100), Velvetleaf) | pest or weed control at 16 g/ha [5, 15] | pest or weed control at 31 g/ha [5, 15] | pest or weed control at 62 g/ha [5, 15] | plant injury at 62 g/ha ([6]; post-emergence, Postemergence, scale 0 to 100, 0 no effect, 100 complete control, read-out: Oilseed Rape plant response rating) | plant injury at 125 g/ha ([6]; post-emergence, Postemergence, scale 0 to 100, 0 no effect, 100 complete control, read-out: Plant response rating, Oilseed Rape) | plant injury at 125 g/ha ([6]; pre-emergence, Preemergence, read-out: Plant response rating (scale 0 to 100), Oilseed Rape) | plant injury at 31 g/ha [6, 16] | plant injury at 62 g/ha [6, 16] | pest or weed control at 250 g/ha [8] | pest or weed control at 250 g/ha [9]
35%: pest or weed control at 62 g/ha ([4]; post-emergence, Postemergence, scale 0 to 100, 0 no effect, 100 complete control, read-out: Ryegrass, Italian plant response rating) | pest or weed control at 125 g/ha ([4]; post-emergence, Postemergence, scale 0 to 100, 0 no effect, 100 complete control, read-out: Plant response rating, Ryegrass, Italian) | plant injury at 250 g/ha (rice (Oryza sativa))
85%: pest or weed control at 62 g/ha ([1]; post-emergence, Postemergence, scale 0 to 100, 0 no effect, 100 complete control, read-out: Lambsquarters plant response rating) | pest or weed control at 16 g/ha [2, 12] | pest or weed control at 62 g/ha [4, 14] | plant injury at 31 g/ha ([6]; post-emergence, Postemergence, scale 0 to 100 (0 no effect, 100 complete control), read-out: Oilseed Rape plant response rating) | plant injury at 16 g/ha [6, 16]
10%: plant injury at 31 g/ha ([3]; post-emergence, Postemergence, scale 0 to 100 (0 no effect, 100 complete control), read-out: Wheat plant response rating) | Corn plant response rating (crop injury, 0 = no effect, 100 = complete kill) at 62 g/ha (corn (Zea mays); post-emergence, Postemergence, scale 0 to 100, 0 no effect, 100 complete control) | Corn plant response rating (crop injury, 0 = no effect, 100 = complete kill) at 62 g/ha (corn (Zea mays); pre-emergence, Preemergence, scale 0 to 100 (0 no effect, 100 complete control))
25%: plant injury at 62 g/ha ([3]; post-emergence, Postemergence, scale 0 to 100, 0 no effect, 100 complete control, read-out: Wheat plant response rating) | pest or weed control at 31 g/ha ([4]; post-emergence, Postemergence, scale 0 to 100 (0 no effect, 100 complete control), read-out: Ryegrass, Italian plant response rating)
40%: plant injury at 125 g/ha ([3]; pre-emergence, Preemergence, read-out: Plant response rating (scale 0 to 100), Wheat)
98%: pest or weed control at 125 g/ha ([1]; post-emergence, Postemergence, scale 0 to 100, 0 no effect, 100 complete control, read-out: Plant response rating, Lambsquarters) | pest or weed control at 31 g/ha [1, 10] | pest or weed control at 31 g/ha [2, 12]
80%: pest or weed control at 31 g/ha ([1]; post-emergence, Postemergence, scale 0 to 100 (0 no effect, 100 complete control), read-out: Lambsquarters plant response rating) | pest or weed control at 31 g/ha [4, 14]
60%: pest or weed control at 31 g/ha ([5]; post-emergence, Postemergence, scale 0 to 100 (0 no effect, 100 complete control), read-out: Velvetleaf plant response rating)
75%: pest or weed control at 16 g/ha [1, 10] | pest or weed control at 16 g/ha ([2]; post-emergence, Postemergence, read-out: Plant response rating (scale 0 to 100), Galium) | pest or weed control at 125 g/ha ([5]; post-emergence, Postemergence, scale 0 to 100, 0 no effect, 100 complete control, read-out: Plant response rating, Velvetleaf)
